Experimental data taken from patent publication US20080206198A1, “Compounds and methods for pharmico-gene therapy of epithelial sodium channel associated disorders” (priority 2003, published 2008).
Peptide text beside a SMILES is read from it. * marks the point of attachment. Cbz = O=C(OCc1ccccc1)*

Columns and labels:
IB3 cells [1] = assay: Nuclear versus cytoplasmic viral DNA fractionation in rAAV2-infected IB3 cells; assay type: cell-based, human
Experimental: (§1) LLnL and Z-LLL are two tripeptidyl aldehydes shown to inhibit calpains, cathepsins, cysteine proteases as well as the chymotrypsin-like protease activity of proteasomes (Wagner et al., 2002; Donkor, 2000; Sasaki et al., 1990). […] Both classes of proteasome inhibitors bind tightly to the proteasome complex. Dose response curves for these two proteasome-modulating agents were evaluated on IB3, A549, Hela, and primary fibroblasts. The responses were consistent for a number of cell lines and for three different promoters driving luciferase expression. For one set, CMV-driven luciferase constructs with an AAV2-based genome were employed that were packaged into AV2 or AV5 capsids. Cells were infected at various doses of AV2Luc and AV2/5Luc (MOIs 100 to 1000 particles/cell). At the time of infection, cells were treated with various concentrations of LLnL or Doxorubicin and gene expression was assayed at 24 hours post-infection. The effect of proteasome inhibitors on nuclear uptake of virus was evaluated using a previously-described protocol for fractionating viral DNA in the cytoplasm and nucleus (Xiao et al., 2002). Viral DNA content in the cytoplasmic and nuclear fractions was then evaluated by slot blot hybridization against a Luciferase DNA probe.

mice = assay: Toxicity of proteasome inhibitors in mice (intra-tracheal and IV); assay type: in vivo, mouse; details: 10, 100 and 1000 fold higher doses than used in polarized airway cells
Experimental: Long-term enhancement of rAAV transduction by proteasome inhibitor in vivo. To evaluate the potential utility of proteasome inhibitors for in vivo gene therapy, both the toxicity and efficacy of these agents for in vivo rAAV mediated gene transfer in the mouse lung was tested. To assess the toxicity of these proteasome inhibitors in mice, 10, 100, and 1000 fold higher effective doses of LLnL or Z-LLL were administered than used to induce gene transfer in polarized airway cells, using both intra-tracheal and systemic (IV) delivery. No toxicity was indicated by histologic evaluation of the lung and liver or was evidenced by the death of animals. To investigate whether these proteasome inhibitors could improve rAAV transduction in vivo, AV.LacZ (5×10^10 particles) was delivered either alone or in the presence of 400 μM Z-LLL by intranasal administration. Mouse lungs were harvested at 3, 10 and 150 days post-infection to evaluate short and long term effects. […] Targeted transgene expression was predominantly confined to the conducting airways, rather than in the parenchyma. Alveolar cells were rarely transduced. […] The range of transgene expression in distal and proximal airways was 0 to 4% and 5 to 18%, respectively.

Solubility in ethanol = assay type: physicochemical
IB3 cells [2] = assay: AV2Luc and AV2/5Luc transduction of IB3 cells; assay type: cell-based, human; details: 24 hours post-infection
Experimental: as §1

A549 cells = assay: rAAV transduction of A549 cells; assay type: cell-based, human; details: for induction of rAAV transduction: 24 hours post-infection
Experimental: C. To determine whether combinations of agents that enhance rAAV transduction efficiency have synergistic or additive effects when used in combination, cells were contacted with the proteasome modulator, doxorubicin, and the proteasome inhibitor Z-LLL or LLnL. Different AAV vectors were tested, including splicing vectors and pseudotyped rAAV. Viral stocks utilized were as follows: Av2RSVluc, 5×10^8 particle/μl; Av2RSVlucCap5 (also referred to as Av2/5 CMVLuc), 2×10^9 particle/μl; Av2CMVluc, 1.3×10^9 particle/μl; and Av2CMVlucCap5, 1.1×109 particle/μl. Combinations of agents were compared to the agents used alone to determine the efficiency of transduction. LLnL was used at 40, 200 or 400 μM, Z-LLL at 4 μM and doxorubicin at 0.5 or 1 μM when employed alone. When a combination of LLnL and doxorubicin was used, LLnL was used at 4, 10, 20, 40, 200 or 400 μM and doxorubicin at 1 or 5 μM. The apical surface of polarized airway epithelia, HeLa cells or ferret fibroblast was contacted with the agents and rAAV (5×10^9 particles per well).
as §1

ENaC = assay: Amiloride-sensitive short-circuit current in polarized CF airway epithelia; assay type: cell-based, human; details: data not shown
Experimental: Short-circuit current (Isc) measurement in polarized airway epithelia. Transepithelial short-circuit currents were measured using an epithelial voltage clamp and a self-contained Using chamber as described in Zabner et al. (1998). The basolateral side of the chamber was filled with Ringer's buffer solution containing 135 mM NaCl, 1.2 mM CaCl2, 2.4 mM KH2PO4, 0.2 mM K2HPO4, 1.2 mM MgCl2, and 5 mM HEPES, pH 7.4. The apical side of the chamber was filled with a low-chloride Ringer's containing 135 mM sodium gluconate, 1.2 mM CaCl2, 2.4 mM KH2PO4, 0.2 mM K2HPO4, 1.2 mM MgCl2, and 5 mM HEPES, pH 7.4. During the experiment, the chamber was maintained at 37° C. and aerated with 100% O2. Transepithelial voltage was clamped at zero, and the resulting Isc was measured and recorded following the sequential addition of the following channel antagonist and agonists: 1) 100 μM amiloride (apical), 2) 100 μM 4,4′-diisothiocyna-2,2′-disulfonic stilbene (DIDS) (apical), 3) 100 μM IBMX/10 μM forskolin (apical), 4) 100 μM bumetanide (basolateral). Voltage was referenced to the apical compartment. The series resistance of the Ringer's solution and transwell membrane was electrically compensated before starting experiments. All chemical agonists and antagonists were added to either the apical or the basolateral sides of the monolayer by direct injection and mixed by aerating the Ringer's solution. […]

liver = assay: rAAV transduction in liver with Z-LLL; assay type: in vivo, mouse; details: 1 month post-infection
Experimental: Recombinant AV.LacZ (5×10^10 particles) was also administered to mouse liver either as virus alone in PBS, virus in combination with 40 μM Z-LLL in PBS, or virus in combination with 20 μM LLnL in PBS. Virus was directly instilled into portal vein of the C57B6 mice. AAV-mediated LacZ transgene expression was evaluated by histology staining at 2 and 4 weeks post infection in frozen tissue sections.

Row | Molecule | fraction of viral DNA in the nuclear compartment (IB3 cells [1]) | toxicity (histology of lung and liver, death of animals) (mice) | solubility in ethanol (Solubility in ethanol) | induction of rAAV transduction (IB3 cells [2]) [fold] | concentration at which transduction was enhanced (A549 cells) [µM] | induction of rAAV transduction (A549 cells) | inhibition of ENaC Isc by the single compound (ENaC) | increase in rAAV transduction in the liver (liver) [fold]
1 | N-acetyl-L-leucinyl-L-leucinal-L-norleucinal [LLnL] | significantly increased the fraction of viral DNA in the nuclear compartment | No toxicity | poor solubility | > 200 | 200 to 400 | 10-fold lower levels of induction |  | 
2 | COc1cccc2c1C(=O)c1c(O)c3c(c(O)c1C2=O)C[C@@](O)(C(=O)CO)C[C@@H]3O[C@H]1C[C@H](N)[C@H](O)[C@H](C)O1 [doxorubicin] | significantly increased the fraction of viral DNA in the nuclear compartment |  |  | 200 | 5 | 200 fold | equivalent inhibition of ENaC Isc as seen with combined Dox/LLnL | 
3 | CC(C)C[C@@H](C=O)NC(=O)[C@H](CC(C)C)NC(=O)[C@H](CC(C)C)NC(=O)OCc1ccccc1 [Z-LLL, N-carbobenzoxyl-L-leucinyl-L-leucinyl-L-leucinal] (Cbz-Leu-Leu-Leu-aldehyde) |  | No toxicity |  |  |  |  |  | 7
